# Results as given in ChEMBL document CHEMBL1127760, “Blood-brain penetration of 5-hydroxytryptamine derivatives” (Bioorg Med Chem Lett, 1994).
# Calls of active or inactive are those of the source. The calls are words filed in the database; no cut-off is given here.
# Legend:
# Mus musculus [1] = experiment: Locomotor activity of the mice was determined at a dose of 50 ng/Kg after 45-60 min of intracerebroventricular (icv) injection; Significantly reduced; format: functional, organism-based
# Mus musculus [2] = experiment: Locomotor activity of the mice was determined at a dose of 50 ng/Kg after 30-45 min of intracerebroventricular (icv) injection; Significantly reduced; format: functional, organism-based
Structure (SMILES),Activity (Mus musculus [1]),Activity (Mus musculus [2])
CC(=O)NCCc1c[nH]c2ccc(O)cc12,Active,Active
COc1ccc2[nH]cc(CCNC(C)=O)c2c1,Active,Active
CCCCCCCCCCCCCCCCOP(=O)(OCCOC1CC(O)C(O)C(CO)O1)Oc1ccc2[nH]cc(CCNC(C)=O)c2c1 (stereo unspecified),Significantly reduced,Significantly reduced
